Laboratory results: PubChem BioAssay AID1996
Converted amounts (≈) assume the structure as drawn.

Details: buffer; pH 7.4; 200.0 µM

| SMILES | solubility kinetic [µg/mL] |
| --- | --- |
| COc1ccc(CCN)cc1OC | 24.8 (≈ 137 µM) |
| Cc1nc(COc2cccc(Cl)c2)sc1C(=O)/C=C/N(C)C | > 50.5 |
| N#Cc1c(N)n(-c2cccc(O)c2)c2nc3ccccc3nc12 | 6.4 (≈ 21.2 µM) |
| COc1ccc(C(=O)c2cnc[nH]2)cc1 | > 30.3 |
| C=CCNC(=O)c1ccc(-c2nc3ccccc3nc2-c2ccccc2)cc1 | 11.7 (≈ 32 µM) |
| CCCCNC(=S)Nc1ccc(C(F)(F)F)cc1 | 15.7 (≈ 56.8 µM) |
| Cc1cc(NC(=O)c2ccno2)no1 | > 29 |
| Fc1ccc(C2CC(c3ccco3)=Nc3ccccc3S2)cc1 (stereo not drawn) | < 0.7 |
| Cc1cccc(CC(=O)NCC2CCCCC2)c1 | > 36.8 |
| CS(=O)(=O)Nc1ccccc1N=C(c1ccccc1)c1ccccc1 | 23.2 (≈ 66.2 µM) |
| CN(C)c1ccc(C(=O)OCC(=O)c2ccc[nH]2)cc1 | 7.8 (≈ 28.6 µM) |
| O=[N+]([O-])c1ccc2oc(-c3ccccc3)nc2c1 | < 0.3 |
| Cc1cc(OCC(=O)OCC(=O)Nc2cc(S(=O)(=O)N3CCOCC3)ccc2Cl)ccc1Cl | 16.2 (≈ 31.3 µM) |
| Cc1cc(C)nc(Oc2ccc(Br)cc2)n1 | 35.5 (≈ 127 µM) |
| Cc1onc(-c2c(F)cccc2Cl)c1C(O)c1ccc(F)cc1 (stereo not drawn) | > 50.4 |
| COc1cc(/C=C/c2ccc3cccc(O)c3n2)cc(OC)c1OC | < 0.7 |
| COc1ccc2oc(=O)c(C(=O)NCc3ccco3)cc2c1 | 4.8 (≈ 16 µM) |
| Cn1c(O)c(/C=N/N2CCOCC2)c(=O)n(-c2ccccc2)c1=S | > 52 |
| CCOC(=O)C1Sc2ccccc2NC1=O (stereo not drawn) | > 35.6 |
| O=C(NC1CCN(C(=O)NCc2ccccc2)CC1)c1ccccc1 | 6.2 (≈ 18.4 µM) |
| O=[N+]([O-])c1ccc(Sc2n[nH]c(-c3ccncc3)n2)nc1 | > 45 |
| COc1ccc(NC(=S)NC(C)c2ccncc2)cc1OC (stereo not drawn) | 46.7 (≈ 147 µM) |
| CN(C(=O)c1cccc(S(=O)(=O)NCc2ccccc2)c1)C1CCCCC1 | 50.7 (≈ 131 µM) |
| COCCCNC(=O)C(CC(N)=O)NC(=O)OCc1ccccc1 (stereo not drawn) | > 50.6 |
| N#CC1(NC(=O)Cn2cc(C(F)(F)F)cc(Cl)c2=O)CCCCC1 | 13.8 (≈ 38.1 µM) |

| SMILES | solubility kinetic [µg/mL] |
| --- | --- |
| CCC12CN3CCN(CC(C3)/C1=N\NC(=O)c1ccc(Cl)cc1)C2 | > 52 |
| CCCCOc1ccc(CN=C(N)N)cc1Cl | > 38.4 |
| CSc1ncc(Cl)c(C(=O)Nc2ccc(NC(C)=O)cc2)n1 | 18.6 (≈ 55.2 µM) |
| O=C(CNC(=O)c1ccccc1)OCC(=O)c1ccccc1Cl | > 49.8 |
| O=C(OCC(=O)c1ccc(Cl)s1)c1cncc(Br)c1 | 17.5 (≈ 48.5 µM) |
| CC(C)NC(=O)CSc1nccc(-c2cccs2)n1 | 38.7 (≈ 132 µM) |
| O=[N+]([O-])c1ccc(N2CCN(c3ccc(F)cc3)CC2)nc1 | 0.3 (≈ 0.992 µM) |
| COc1ccc2c(c1O)C13CCN(C)C(C2)C1CCC(=O)C3 (stereo not drawn) | > 45.2 |
| CC(=O)Nc1ccc(CN2CCN(CC=C(C)C)C(CCO)C2)cc1 (stereo not drawn) | > 51.8 |
| O=C(CCN1CCN(CCO)CC1)Nc1ccc(Br)cc1 | > 53.4 |
| COc1ccc(OCC(O)CN2CCCC2)cc1 (stereo not drawn) | 30.7 (≈ 122 µM) |
| CC(NCCC(c1ccccc1)c1ccccc1)c1ccccc1.Cl (stereo not drawn) | > 52.8 |
| CN1C(=O)N(C)C2(C)CC1(C)N(C)C(=O)N2C | > 36 |
| O=c1[nH]cc(S(=O)(=O)NCc2ccccc2)c(=O)[nH]1 | > 42.2 |
| CCCc1cc(=O)[nH]c(SCC(=O)N2CCC(C)CC2)n1 | > 46.4 |
| COc1ccccc1CNC(=O)CS(=O)(=O)c1ccc(C)cc1 | > 50 |
| CC(C)(C)c1ccccc1OCC(=O)NCCCn1ccnc1 | > 47.3 |
| O=C(NCCc1cccs1)c1ccc(Cl)cc1 | > 39.9 |
| CCCn1c(SCC(=O)NC2CCCC2)nnc1C(C)C | > 46.6 |
| Nc1nonc1OCCN1CCN(c2ccc([N+](=O)[O-])c3cccnc23)CC1 | 9.1 (≈ 23.6 µM) |
| CC(c1ccccc1)n1c(CO)nc2ccccc21 (stereo not drawn) | 35.2 (≈ 140 µM) |
| O=C(CC1CC2CCC1C2)NC1CCCCCCC1 (stereo not drawn) | 4.5 (≈ 17.1 µM) |
| CC(C)CC(C(=O)Nc1cccc(O)c1)N1C(=O)c2ccccc2C1=O (stereo not drawn) | > 52.9 |
| Cc1ccccc1/C=C/c1nc2ccccc2c(=O)[nH]1 | 0.4 (≈ 1.52 µM) |
| O=C(c1ccccc1)N(Cc1ccccc1)Cc1ccccc1 | 0.8 (≈ 2.65 µM) |

| SMILES | solubility kinetic [µg/mL] |
| --- | --- |
| Cc1cc(C)c(Nc2ncnc(N)n2)c(C)c1 | > 34.4 |
| O=C(c1cccc(Oc2ccccc2)c1)N1CCOCC1 | > 42.5 |
| Cc1c(NC(=O)C(C)OC(=O)c2ccccc2O)c(=O)n(-c2ccccc2)n1C (stereo not drawn) | > 59.3 |
| CC1CCCC(C)N1C(=O)COC(=O)CCC1CCCC1 (stereo not drawn) | 30.1 (≈ 102 µM) |
| C/C(=N\NC(=O)C1CC1)c1ccc(C)c(C)c1 | > 34.5 |
| O=C(c1ccc(F)cc1)N(c1ccccn1)C1CCCCC1 | 42.6 (≈ 143 µM) |
| N#Cc1ccc(OCCN2CCc3ccccc3C2)cc1 | 41 (≈ 147 µM) |
| Cc1ccnc(SCC(=O)NC2CCCCCC2)n1 | 33 (≈ 118 µM) |
| COc1cc(OC)c(C(=O)Nc2ccc(C(=O)c3ccccc3)cc2)cc1OC | 3.4 (≈ 8.69 µM) |
| Cc1ccc(C(C)NC(=S)NC2CCCCC2)c(C)c1 (stereo not drawn) | 9.1 (≈ 31.3 µM) |
| O=C(COc1ccc(Br)cc1)N1CCNC1=O | > 44.9 |
| N#Cc1cccnc1N1CCC(C(N)=O)CC1 | > 34.5 |
| Cc1ccc2[nH]c(C(=O)N3CCOCC3)cc2c1 | > 36.6 |
| Oc1ccc(Nc2nc(-c3ccccc3)nc3ccccc23)cc1 | 2.3 (≈ 7.34 µM) |
| Cn1c(CO)cnc1S(=O)(=O)Cc1ccc(Cl)cc1 | > 45.1 |
| COC(=O)CCCCCCCCC(O)CN(C)C (stereo not drawn) | 27.7 (≈ 107 µM) |
| CCOc1ccccc1NC(=O)CCCc1ccc(OC)c(C)c1 | 8.2 (≈ 25 µM) |
| Cn1ccnc1C(=O)c1ccccc1Cl | > 33.1 |
| C=CCNC1=C(Cl)C(=O)N(Cc2ccccc2)C1=O | 5.8 (≈ 21 µM) |
| CC(C)(C)NC(=O)[C@H]1CC[C@H]2[C@@H]3CC[C@H]4NC(=O)C=C[C@]4(C)[C@H]3CC[C@]12C | 52.8 (≈ 142 µM) |
| CCN(CC)C(=S)Nc1c(C)n(C)n(-c2ccccc2)c1=O | > 47.8 |
| C=CCNC(=S)/N=c1/ccccn1CC | 28.7 (≈ 130 µM) |
| Cc1cccc(NC(=O)N2CCCc3ccccc32)c1C | 13.2 (≈ 47.1 µM) |
| CSCC[C@H](NC(=O)c1cccc(S(=O)(=O)N2CCN(C)CC2)c1)c1nc2ccccc2[nH]1 | > 73.1 |
| CN(C(=O)c1ccc2c(c1)OCO2)C1CCS(=O)(=O)C1 (stereo not drawn) | > 44.6 |

| SMILES | solubility kinetic [µg/mL] |
| --- | --- |
| Nc1ccc(C(=O)NCc2ccccc2)cc1 | > 33.9 |
| Brc1ccc(-c2cn3ccccc3n2)cc1 | 0.8 (≈ 2.93 µM) |
| COC(=O)c1c(C(=O)OC)c2n(c1C)CCS2 | > 38.3 |
| COc1ccc(/C=N/NC(=O)c2ccccc2O)cc1CN1CCOCC1 | > 55.4 |
| Fc1cccc(F)c1-c1nc(-c2ccc(Cl)cc2)no1 | < 0.3 |
| Cc1ccc(OC(=O)c2cccnc2)cc1 | 22.5 (≈ 106 µM) |
| CN1CCN(C(=S)NC(CC(=O)c2ccccc2)c2ccccc2)CC1 (stereo not drawn) | 43.2 (≈ 118 µM) |
| COCCNC(=O)CN1C(=O)NC2(CCCCCC2)C1=O | > 44.6 |
| COc1ccc(OCCn2cnc3ccccc32)cc1 | > 40.2 |
| CSc1ncc(C(=O)Nc2ccccc2Cl)c(C)n1 | 39.6 (≈ 135 µM) |
| Cc1cccc(OC(C)C(=O)Nc2nccs2)c1 (stereo not drawn) | 37.9 (≈ 144 µM) |
| CSc1cccc(NC(=O)COC(=O)c2ccccn2)c1 | > 45.4 |
| COCCC(=O)Nc1ccc2c(c1)CN(C(=O)CSC)CC2 | > 48.4 |
| COc1cc(NC(=S)N2CCCCC2C)c(OC)cc1Cl (stereo not drawn) | 44.7 (≈ 136 µM) |
| CC(=O)N1c2ccccc2C2(C)C(C1(C)C)C2(Cl)Cl (stereo not drawn) | 6.1 (≈ 20.5 µM) |
| CN(C)CCNc1cnn(-c2ccccc2)c(=O)c1Cl | > 43.9 |
| CCOc1ccc(CCNC(=O)c2cnc(C)cn2)cc1OCC | > 49.4 |
| CCOc1cc(N2CCOCC2)c(OCC)cc1NC(=O)C(C)Oc1ccccc1 (stereo not drawn) | 43.6 (≈ 105 µM) |
| COc1ccc(NC(=O)CN2C(=O)NC3(CCCC3)C2=O)cc1 | 40.1 (≈ 126 µM) |
| COC(=O)c1cc(C(=O)Cc2ccccc2)c[nH]1 | > 36.5 |
| C/C=C/C=C/C(=O)OC(C)C(=O)Nc1cc([N+](=O)[O-])ccc1OC (stereo not drawn) | 18 (≈ 53.8 µM) |
| Cc1ccc(C23CC4CC(CC(C(=O)N(C)C)(C4)C2)C3)cc1 | 2.4 (≈ 8.07 µM) |
| O=C(Nc1cccc2c1CCCC2)c1ccc(F)cc1 | 2.2 (≈ 8.17 µM) |
| O=C(Nc1ccc(Cl)cc1)c1cc(-c2cccs2)on1 | < 0.3 |
| O=[N+]([O-])c1ccc(N2CCCC2)nc1 | 26.8 (≈ 139 µM) |

| SMILES | solubility kinetic [µg/mL] |
| --- | --- |
| CCCN(CC(=O)Nc1cc(Cl)ccc1Cl)C(=O)c1ccccn1 | > 54.9 |
| COc1ccc(OC)c(Cc2nnc(CCC(=O)N3CCCCCC3)o2)c1 | > 56 |
| O=C(NCCNc1ccc(Cl)cc1[N+](=O)[O-])c1ccccc1F | 1.5 (≈ 4.44 µM) |
| Cc1cnc(C(=O)OCC(=O)N2CCC(C)CC2)cn1 | > 41.6 |
| CC(Nc1c([N+](=O)[O-])c(=O)oc2ccccc12)c1ccccc1 (stereo not drawn) | 8.8 (≈ 28.4 µM) |
| Fc1cccc(COc2ccccc2C(=S)N2CCCC2)c1 | 15 (≈ 47.6 µM) |
| Cc1ccccc1NC(=O)CN1C(=O)CSc2ccccc21 | 3.6 (≈ 11.5 µM) |
| NC(=O)COC(=O)c1sc2ccccc2c1Cl | 12.4 (≈ 46 µM) |
| CCOC(=O)c1ccc2ncc(-c3ccccc3)nc2c1 | 0.3 (≈ 1.08 µM) |
| Cn1c(N)c(C(=O)Nc2ccccc2F)sc1=S | 4.4 (≈ 15.5 µM) |
| N/C(=N\O)c1ccc(Cl)cc1Cl | 30 (≈ 146 µM) |
| Br.COc1ccc(C(=O)CN2Cc3ccccc3C2=N)cc1 | > 54.2 |
| O=C(NCCCNC(=O)c1ccc(Cl)cc1Cl)c1ccco1 | 50.1 (≈ 147 µM) |
| O=C(NCCCc1nc2ccccc2[nH]1)c1ccc(F)cc1 | > 44.6 |
| N/C(Cc1ccc([N+](=O)[O-])cc1)=N\OC(=O)c1ccco1 | 18 (≈ 62.2 µM) |
| OCC1OC(n2cnc3c(NCCc4ccccc4)ncnc32)C(O)C1O (stereo not drawn) | > 55.7 |
| COc1cc(S(=O)(=O)Nc2cccnc2)ccc1Cl | > 44.8 |
| CSc1cccc(NC(=S)N2CCC(c3ccccc3)C2)c1 (stereo not drawn) | 2.2 (≈ 6.7 µM) |
| CC(=O)c1c(C)[nH]c(C(=O)Nc2cccc(C#N)c2)c1C | 10.8 (≈ 38.4 µM) |
| CCn1c(SCC(=O)Nc2nccs2)nnc1C1CC1 | > 46.4 |
| COc1ccc(CCC(C)NCc2ccc(F)cc2)cc1 (stereo not drawn) | 31.8 (≈ 111 µM) |
| C/C(=N\OCC(=O)Nc1ccccc1C(=O)O)c1cccs1 | > 47.8 |
| Cn1ccc(/C=N/N=C2/NC(=O)CS2)n1 | > 33.5 |
